Experimental findings from patent publication US8563503B2, “Antibiotic, its nucleotide sequence, methods of construction and uses thereof” (Protein Design Lab. Ltd., priority 2011, dated 2013) are described below.

The term MIC50 denotes the lowest concentration that inhibits either 50% of growth or 50% of the strains tested, depending on the study. By MIC90 is commonly meant an inhibitory concentration at the 90% level, which refers to growth in some studies and to a panel of isolates in others. As usually defined, the MIC is the least concentration at which growth counts as inhibited. Usually ED50 stands for the dose that gives a 50% effect, or the effect in half of the subjects. A high value points to a need for a large dose.

Where only a bound is given, the exact number is not on record here.

Data set [1] deals with ATCC 25923 penicillin-sensitive Staphylococcus aureus. In words: Bacteria growth curve (A595 nm cloudiness), penicillin-sensitive Staphylococcus aureus. Type of data set: cell-based. The settings on record: drug 100 ng/ml, 37° C., A595 nm per hour. As for the experimental part: The bacterium was United States Reference Culture ATCC 25923 penicillin-sensitive Staphylococcus aureus. 2 microliter of bacteria solution (10^5 CFU/ml) was added into 10 ml culture solution containing 1% tryptone, 1% NaCl, 0.5% yeast extract, 0.5% glucose and 0.1% K2HPO4, totally prepared six groups. The first group as control was added 0.3 M NaCl+50 mM boric acid buffer fluid (i.e. blank preservative fluid for novel antibiotic, wild-type colicin Ia and protein produced by BL-21 engineering bacteria without plasmid, by the same volumes of antibiosis polypeptide liquid in the experimental group, the second group was added penicillin G sodium by 100 ng/ml, the third group was added wild-type colicin Ia by 100 ng/ml, the fourth group was added protein produced by BL-21 engineering bacteria without plasmid by 100 ng/ml, the fifth group was added recombinant protein that C-terminus of colicin Ia is fused other eight peptides by 100 ng/ml, and the sixth group was added the novel antibiotic PMC-SA1 by 100 ng/ml.
The solutions of the six groups were respectively put into 100 ml conical flask, 200 rpm, grew at 37° C. 100 μl was sampled per hour, and added onto 96 hole ELISA Plate and measured bacterium growth cloudiness by spectrophotometer (A595 nm) color comparison. The bacteria-growth curve was drawn up to compare the bacteriostasis efficacy of novel antibiosis.

A further data set has as its system Baumanii. In words: MIC by Agar Doubling Dilution Method, clinical isolates. Type of data set: cell-based. As for the experimental part: (§1) (3) Culture Solution • MH Broth Culture Solution: 25 g was added into […] distilled water, heat to dissolve, subpackaged, autoclaved at 116° C. for 20 minutes, and MH Solid Culture Medium, 36 g was added into 1000 ml distilled water, autoclaved at 116° C. for 20 minutes, used for drug sensitive test of Gram-positive and negative aerobic bacteria. • Blood culture solution for Enterococcus faecalis, which was prepared by adding defibration rabbit blood into the MH culture solution by 5-10% and cultured at 37° C. in 5% CO2 for 24 hours. 2. Experimental Methods (1) The Measurement of Minimum Inhibitory Concentration (MIC) • The Minimum Inhibitory Concentration (MIC) of PMC-SA1 was measured by Agar Doubling Dilution Method. The bacterium was inoculated on the surface of agar plate containing different concentration of drugs by multipoint inoculate instrument (Deneley A400). The bacterial content per point was 10^5 CFU/ml. After incubated at 37° C. for 18-24 hours, the result can be observed. The least concentration of drugs in plate culture solution without bacterium growing was Minimum Inhibitory Concentration (MIC) of the drug to the said bacteria. 3. Results

A further data set has as its system E. coli. Described as above. The conditions noted are these: Escherichia coli, E. coli clinical strains. Type of data set: cell-based. The protocol:
as §1

Data set [2] has as its system Staphylococcus aureus (MRSA). Described as above. The conditions noted are these: Staphylococcus aureus, MRSA. Type of data set: cell-based. As for the experimental part:
as §1

Data set [3] concerns Staphylococcus aureus (MSSA). The data set is described as above. Type of data set: cell-based. The conditions noted are these: Staphylococcus aureus, MSSA. The protocol:
as §1

Data set [4] deals with Staphylococcus epidermidis (MRSE). The data set is described as above. Type of data set: cell-based. The conditions noted are these: Staphylococcus epidermidis, MRSE. The protocol: as §1
The subject of data set [5] is Staphylococcus epidermidis (MSSE strain). The description is as above. Type of data set: cell-based. As for the experimental part: as §1
In the next data set the test system is Enterococcus. The data set is described as above. Type of data set: cell-based, Enterococcus faecalis. The conditions noted are these: Enterococcus. The protocol:
as §1

The subject of data set [6] is Enterococcus ATCC 700802. In words: MIC against the infecting strain (Table 2). Type of data set: cell-based, Enterococcus faecalis. The conditions noted are these: ATCC700802. The protocol: as §1
Data set [7] deals with E. coli 02-1-65. In words: MIC against the infecting strain (Table 2). The settings on record: Escherichia coli, 02165. Type of data set: cell-based. The protocol: as §1
Data set [8] deals with Staphylococcus aureus ATCC 29213. In words: MIC against the infecting strain (Table 2). Type of data set: cell-based. The conditions noted are these: ATCC29213. The protocol:
as §1

Data set [9] deals with Staphylococcus aureus MRSA BAA-42. In words: MIC against the infecting strain (Table 2). Type of data set: cell-based. The conditions noted are these: Staphylococcus aureus. The protocol: as §1
Data set [10] has as its system E. coli 02-1-65. In words: Protection test in vivo (intravenous injection) of infected mice. Set-up: species or system Kungming mice. The settings on record: Escherichia coli, 02165. The protocol: (§2) The drugs used in this embodiment were same with that used in embodiment 4.
(§3) The above drugs were dissolved and diluted by sterilized water, and the injection concentrations of each drug were 10 mg/kg, 5 mg/kg and 2.5 mg/kg.
(§4) After given intraperitoneal injection of fatal dose of above-mentioned bacteria, the mice of each drug experimental group respectively were given once intravenous injection of the drug by 10 mg, 5 mg, 2.5 mg/kg. The results were observed per 24 hours for 7-14 days. The positive result is mice's death.

The test system of data set [11] is Enterococcus ATCC 700802. The data set is described as above. Set-up: species or system Kungming mice. The settings on record: Enterococcus, ATCC700802. As for the experimental part:
as §2, §3, §4

For data set [12], the system named is Staphylococcus aureus ATCC 29213. The description is as above. Set-up: species or system Kungming mice. The conditions noted are these: Staphylococcus aureus, ATCC29213. The protocol: as §2, §3, §4
Data set [13] has as its system Staphylococcus aureus MRSA BAA-42. Described as above. Set-up: species or system Kungming mice. The settings on record: Staphylococcus aureus. As for the experimental part:
as §2, §3, §4

Data set [14] is described as follows: Immunization of mice, valence of mouse sera by indirect ELISA. Type of data set: in vivo. The settings on record: from valence of mouse sera. As for the experimental part:
Allosteric peptide of Colicin Ia, i.e. Ia′, PMC-SA1 obtained in embodiment 1, wild-type colicin Ia and the anti-Staphylococcus aureus peptide (ZL01128836.1) which invented by the present inventor were taken respectively to immunize mice. After admixturing with the adjuvant, the above proteins were interaperitonea injected respectively to the mice by 50 μg per mouse for one time of foundational quantity and 50 μg per mouse for one time of additional quantity totally 5 times by two weeks interval. Indirect ELISA detection method was applied to detect the valence of mouse sera (Xiao Yi, et. al., Preparation and preliminary characterization of monoclonal antibodies against Pheromonicin-and-Staphylococcus aureus, Shanxi Medical Journal, 35(1): 6-7, 32 (2006)). The valence of mouse sera which immunized by wild type colicin Ia as well as anti-Staphylococcus aureus polypeptide (ZL01128836.1) was 10^−4 to 10^−5, while the valence of mouse sera which immunized by allosteric peptide of colicin Ia and PMC-SA1 was 10^−2 to 10^−3.
For orientation: ELISA stands for enzyme-linked immunosorbent assay.

Regarding `CC1(C)S[C@@H]2[C@H](NC(=O)Cc3ccccc3)C(=O)N2[C@H]1C(=O)O` [Penicillin, Benzylpenicillin Sodium], in data set [1], the “growth of penicillin-sensitive Staphylococcus aureus (bacteria-growth curve)” value was “restrained”. The MIC50 in the data set with Baumanii is over 128 µg/mL; in the data set on E. coli (read-out: MIC50) it was over 128 µg/mL; in [2] it was 128 µg/mL; in data set [3] it was 8 µg/mL; in data set [4], over 128 µg/mL; in [5] (Staphylococcus epidermidis) it was 4 µg/mL. In addition, in the data set on Enterococcus, the MIC50 was determined as 32 µg/mL. In addition, the MIC90 against Baumanii is over 128 µg/mL; in the data set on E. coli (read-out: MIC90), over 128 µg/mL; in data set [2] it was over 128 µg/mL; in data set [3], 64 µg/mL; in data set [4], over 128 µg/mL; in data set [5] (Staphylococcus epidermidis), 32 µg/mL. The molecule further showed an MIC90 against Enterococcus of 64 µg/mL. Moreover, the MIC in the data set on Baumanii (read-out: Scope of MIC) was over 128 µg/mL; in the data set on E. coli (read-out: Scope of MIC) it was over 128 µg/mL; in [2] (read-out: Scope of MIC), 1 to 128 µg/mL; in the data set with Enterococcus ATCC 700802 [6], 4 µg/mL; against E. coli 02-1-65 [7], over 128 µg/mL; in data set [8], 16 µg/mL. In data set [9], the MIC came out at 8 µg/mL. The “Scope of MIC” value in data set [5] (MSSE clinical strains) was in the range of 0.125 to 128 µg/mL. In addition, the ED50 in the data set on E. coli 02-1-65 [10] is over 34.5 mg/kg; in the data set on Enterococcus ATCC 700802 [11], 4.16 mg/kg; in data set [12] it was 10.8 mg/kg; in data set [13], 14.7 mg/kg.

B1: allosteric peptide of colicin Ia: wild-type Colicin Ia with mutations G11A, H22R, A26G, V31L and H40K; SEQ ID NO: 36 (protein)
chain: SDPVRITNPAAESLGYDSDGREIMGVDIYLNPPRVDVFKGTPPAWSSFGNKTIWGGNEWVDDSPTRSDIEKRDKEITAYKNTLSAQQKENENKRTEAGKRLSAAIAAREKDENTLKTLRAGNADAADITRQEFRLLQAELREYGFRTEIAGYDALRLHTESRMLFADADSLRISPREARSLIEQAEKRQKDAQNADKKAADMLAEYERRKGILDTRLSELEKNGGAALAVLDAQQARLLGQQTRNDRAISEARNKLSSVTESLNTARNALTRAEQQLTQQKNTPDGKTIVSPEKFPGRSSTNHSIVVSGDPRFAGTIKITTSAVIDNRANLNYLLSHSGLDYKRNILNDRNPVVTEDVEGDKKIYNAEVAEWDKLRQRLLDARNKITSAESAVNSARNNLSARTNEQKHANDALNALLKEKENIRNQLSGINQKIAEEKRKQDELKATKDAINFTTEFLKSVSEKYGAKAEQLAREMAGQAKGKKIRNVEEALKTYEKYRADINKKINAKDRAAIAAALESVKLSDISSNLNRFSRGLGYAGKFTSLADWITEFGKAVRTENWRPLFVKTETIIAGNAATALVALVFSILTGSALGIIGYGLLMAVTGALIDESLVEKANKFWGI
modifications: allosteric peptide of colicin Ia
On to B1, for which the “possibility of causing host allergic reaction relative to anti-Staphylococcus aureus polypeptide” value in data set [14] is “lower one to two order of magnitude”.
